Activity calls are given as the source filed them. The calls are words filed in the database; no cut-off is given here.
Assays:
[1] = molecular target: Voltage-gated inwardly rectifying potassium channel KCNH2 (Homo sapiens, UniProt Q12809); experiment: Inhibition of hERG expressed in HEK293 cells by manual patch clamp assay; type: toxicity, cell-based; design: concentration or dose not given beside the values
[2] = molecular target: T1, Protein cereblon/Interleukin-1 receptor-associated kinase 4 (Homo sapiens, UniProt Q9NWZ3+Q96SW2); experiment: PROTAC activity at CRBN/IRAK4 in human THP-1 cells assessed as induction of IRAK4 degradation incubated for 24 hrs by HiBiT lytic reagent based analysis relative to control; type: cell-based
Target sequence in this assay (Q96SW2 whole entry, looked up): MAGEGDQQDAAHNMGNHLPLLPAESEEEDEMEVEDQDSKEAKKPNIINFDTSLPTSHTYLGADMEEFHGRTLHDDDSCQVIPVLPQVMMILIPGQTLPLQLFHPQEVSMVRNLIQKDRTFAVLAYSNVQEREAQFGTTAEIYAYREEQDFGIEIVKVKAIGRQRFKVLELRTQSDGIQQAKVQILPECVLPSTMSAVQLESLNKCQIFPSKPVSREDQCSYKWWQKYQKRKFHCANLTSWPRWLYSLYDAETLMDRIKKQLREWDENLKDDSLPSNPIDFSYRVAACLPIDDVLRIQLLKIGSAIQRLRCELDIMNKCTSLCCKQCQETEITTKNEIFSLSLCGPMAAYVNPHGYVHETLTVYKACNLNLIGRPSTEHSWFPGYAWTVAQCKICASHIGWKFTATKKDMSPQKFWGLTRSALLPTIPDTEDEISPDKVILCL
Target sequence in this assay (Q9NWZ3 whole entry, looked up): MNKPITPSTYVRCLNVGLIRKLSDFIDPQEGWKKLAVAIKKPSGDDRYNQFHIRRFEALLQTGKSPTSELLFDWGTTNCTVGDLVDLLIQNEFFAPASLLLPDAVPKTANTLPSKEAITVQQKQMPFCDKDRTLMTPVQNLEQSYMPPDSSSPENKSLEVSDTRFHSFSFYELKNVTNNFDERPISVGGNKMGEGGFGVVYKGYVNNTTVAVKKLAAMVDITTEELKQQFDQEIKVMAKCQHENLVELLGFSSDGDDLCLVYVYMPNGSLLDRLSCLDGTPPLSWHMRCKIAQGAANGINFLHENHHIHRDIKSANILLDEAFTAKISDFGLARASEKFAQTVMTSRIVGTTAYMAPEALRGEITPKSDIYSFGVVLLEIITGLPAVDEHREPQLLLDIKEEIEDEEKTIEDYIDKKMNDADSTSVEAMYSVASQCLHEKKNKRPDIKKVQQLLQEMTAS

[3] = molecular target: T1, Protein cereblon/Interleukin-1 receptor-associated kinase 4; experiment: PROTAC activity at CRBN/IRAK4 in human THP-1 cells assessed as induction of IRAK4 degradation incubated for 24 hrs by HiBiT lytic reagent based analysis; type: cell-based
Target sequence in this assay (Q9NWZ3 whole entry): as the sequence (Q9NWZ3 whole entry, looked up) above
Target sequence in this assay (Q96SW2 whole entry): as the sequence (Q96SW2 whole entry, looked up) above

[4] = Half life in male C57BL/6 mouse at 10 mg/kg, po measured up to 24 hrs by LC-MS/MS analysis; type: ADME, organism-based; conditions: in vivo
[5] = Tmax in Sprague-Dawley rat at 10 mg/kg, po measured up to 24 hrs by LC-MS/MS analysis; type: ADME, organism-based; conditions: in vivo
[6] = Volume of distribution at steady state in male C57BL/6 mouse at 2 mg/kg, iv measured up to 24 hrs by LC-MS/MS analysis; type: ADME, organism-based; conditions: in vivo, read-out: Vdss
hERG (KCNH2) [7] = molecular target: T2, hERG (KCNH2) (Homo sapiens, UniProt Q12809); experiment: Inhibition of hERG expressed in HEK293 cells at 1 uM by manual patch clamp assay relative to control; type: toxicity, cell-based; conditions: HEK293 cells expressing hERG
[8] = Clearance in Sprague-Dawley rat at 2 mg/kg, iv measured up to 24 hrs by LC-MS/MS analysis; type: ADME, organism-based; conditions: in vivo
[9] = Metabolic stability in dog liver microsome assessed as half life at 1 uM measured up to 60 mins in presence of NADPH by LC-MS/MS analysis; type: ADME, Canis lupus familiaris; conditions: liver microsomes
[10] = Cmax in male C57BL/6 mouse at 10 mg/kg, po measured up to 24 hrs by LC-MS/MS analysis; type: ADME, organism-based; conditions: in vivo
[11] = Volume of distribution at steady state in Sprague-Dawley rat at 2 mg/kg, iv measured up to 24 hrs by LC-MS/MS analysis; type: ADME, organism-based; conditions: in vivo, read-out: Vdss
[12] = AUClast in male C57BL/6 mouse at 10 mg/kg, po measured up to 24 hrs by LC-MS/MS analysis; type: ADME, organism-based; conditions: in vivo
[13] = Metabolic stability in rat liver microsome assessed as half life at 1 uM measured up to 60 mins in presence of NADPH by LC-MS/MS analysis; type: ADME; conditions: liver microsomes
[14] = Half life in male C57BL/6 mouse at 2 mg/kg, iv measured up to 24 hrs by LC-MS/MS analysis; type: ADME, organism-based; conditions: in vivo
[15] = AUClast in Sprague-Dawley rat at 2 mg/kg, iv measured up to 24 hrs by LC-MS/MS analysis; type: ADME, organism-based; conditions: in vivo
[16] = Metabolic stability in cynomolgus monkey liver microsome assessed as half life at 1 uM measured up to 60 mins in presence of NADPH by LC-MS/MS analysis; type: ADME, Macaca fascicularis; conditions: liver microsomes
[17] = Cmax in Sprague-Dawley rat at 2 mg/kg, iv measured up to 24 hrs by LC-MS/MS analysis; type: ADME, organism-based; conditions: in vivo
[18] = Tmax in male C57BL/6 mouse at 10 mg/kg, po measured up to 24 hrs by LC-MS/MS analysis; type: ADME, organism-based; conditions: in vivo
[19] = Metabolic stability in human liver microsome assessed as half life at 1 uM measured up to 60 mins in presence of NADPH by LC-MS/MS analysis; type: ADME; conditions: liver microsomes
[20] = Half life in Sprague-Dawley rat at 2 mg/kg, iv measured up to 24 hrs by LC-MS/MS analysis; type: ADME, organism-based; conditions: in vivo
[21] = Metabolic stability in mouse liver microsome assessed as half life at 1 uM measured up to 60 mins in presence of NADPH by LC-MS/MS analysis; type: ADME; conditions: liver microsomes
[22] = Cmax in male C57BL/6 mouse at 2 mg/kg, iv measured up to 24 hrs by LC-MS/MS analysis; type: ADME, organism-based; conditions: in vivo
[23] = Half life in Sprague-Dawley rat at 10 mg/kg, po measured up to 24 hrs by LC-MS/MS analysis; type: ADME, organism-based; conditions: in vivo
[24] = Clearance in male C57BL/6 mouse at 2 mg/kg, iv measured up to 24 hrs by LC-MS/MS analysis; type: ADME, organism-based; conditions: in vivo
[25] = AUClast in Sprague-Dawley rat at 10 mg/kg, po measured up to 24 hrs by LC-MS/MS analysis; type: ADME, organism-based; conditions: in vivo
[26] = Oral bioavailability in male C57BL/6 mouse at 10 mg/kg measured up to 24 hrs by LC-MS/MS analysis; type: ADME, organism-based; conditions: in vivo
[27] = AUClast in male C57BL/6 mouse at 2 mg/kg, iv measured up to 24 hrs by LC-MS/MS analysis; type: ADME, organism-based; conditions: in vivo
[28] = Oral bioavailability in Sprague-Dawley rat at 10 mg/kg measured up to 24 hrs by LC-MS/MS analysis; type: ADME, organism-based; conditions: in vivo
[29] = Cmax in Sprague-Dawley rat at 10 mg/kg, po measured up to 24 hrs by LC-MS/MS analysis; type: ADME, organism-based; conditions: in vivo
hERG (KCNH2) [30] = molecular target: T2, hERG (KCNH2); experiment: Inhibition of hERG expressed in HEK293 cells at 3 uM by manual patch clamp assay relative to control; type: toxicity, cell-based; conditions: HEK293 cells expressing hERG
Mus musculus = experiment: Anti-arthritic activity against collagen-induced arthritis DBA/1 mouse model assessed as reduction in pathological score at 30 mg/kg, po administered for 14 days; type: functional, organism-based; conditions: time 14.0 day

T2 sequence (Q12809 whole entry): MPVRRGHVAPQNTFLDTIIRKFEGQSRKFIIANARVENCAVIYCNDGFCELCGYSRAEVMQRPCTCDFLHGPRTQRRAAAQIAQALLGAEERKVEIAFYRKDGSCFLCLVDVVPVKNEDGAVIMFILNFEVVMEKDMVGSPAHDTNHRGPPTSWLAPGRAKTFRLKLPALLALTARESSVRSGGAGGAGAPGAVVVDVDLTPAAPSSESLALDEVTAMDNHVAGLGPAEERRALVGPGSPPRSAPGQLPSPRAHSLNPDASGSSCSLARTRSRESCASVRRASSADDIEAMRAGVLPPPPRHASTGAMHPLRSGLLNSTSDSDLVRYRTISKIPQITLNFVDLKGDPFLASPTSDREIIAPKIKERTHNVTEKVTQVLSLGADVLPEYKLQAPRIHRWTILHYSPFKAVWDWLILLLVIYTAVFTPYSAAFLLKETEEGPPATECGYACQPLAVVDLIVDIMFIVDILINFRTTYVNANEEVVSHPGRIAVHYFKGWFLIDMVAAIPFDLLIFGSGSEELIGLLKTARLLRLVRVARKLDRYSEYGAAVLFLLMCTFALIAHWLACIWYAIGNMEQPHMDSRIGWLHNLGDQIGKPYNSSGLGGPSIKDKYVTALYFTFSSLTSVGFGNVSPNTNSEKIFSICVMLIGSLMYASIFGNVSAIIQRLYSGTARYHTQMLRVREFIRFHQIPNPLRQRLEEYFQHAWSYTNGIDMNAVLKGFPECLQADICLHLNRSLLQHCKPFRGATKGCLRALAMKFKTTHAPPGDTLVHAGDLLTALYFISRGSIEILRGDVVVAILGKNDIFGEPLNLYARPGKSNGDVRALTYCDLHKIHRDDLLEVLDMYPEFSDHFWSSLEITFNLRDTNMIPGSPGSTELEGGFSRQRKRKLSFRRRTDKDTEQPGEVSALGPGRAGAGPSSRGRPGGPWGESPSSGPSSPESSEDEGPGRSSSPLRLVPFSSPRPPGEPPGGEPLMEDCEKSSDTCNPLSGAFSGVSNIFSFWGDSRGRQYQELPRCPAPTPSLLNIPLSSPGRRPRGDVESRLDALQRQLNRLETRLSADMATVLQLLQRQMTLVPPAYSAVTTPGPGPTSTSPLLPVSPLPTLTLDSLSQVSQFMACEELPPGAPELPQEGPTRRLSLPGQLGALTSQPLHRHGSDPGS
Voltage-gated inwardly rectifying potassium channel KCNH2, sequence (Q12809 whole entry): as above

SMILES	inhibition (INH) [1] [%]	Emax [2] [%]	DC50 [3] [nM]	half-life [4] [h]	Vd [6] [L/kg]	half-life at 1 µM [9] [h]	Cmax [10] [ng/mL]	AUC(0-t) at 24 h [12] [ng·h/mL]	half-life at 1 µM [13] [h]	half-life [14] [h]	half-life at 1 µM [16] [h]	Tmax [18] [h]	half-life at 1 µM [19] [h]	half-life at 1 µM [21] [h]	Cmax [22] [ng/mL]	clearance [24] [mL/min/kg]	bioavailability [26] [%]	AUC(0-t) at 24 h [27] [ng·h/mL]	also measured
Cn1c(=O)n(C2CCC(=O)NC2=O)c2cccc(CCCOCCNCCN3CCC4(CC3)Cc3cc(NC(=O)c5cnn6cccnc56)c(N5CCC(CO)CC5)cc3O4)c21 (configuration not stated)	2	68	1.86	–	–	–	–	–	–	–	–	–	–	–	–	–	–	–	–
Cn1c(=O)n(C2CCC(=O)NC2=O)c2cccc(C#CCO[C@H]3CC[C@H](CN4CCC5(CC4)Cc4cc(NC(=O)c6cnn7cccnc67)c(N6CCC(CO)CC6)cc4O5)CC3)c21 (some centres not stated)	–	90	2.65	3.7	0.94	> 3.07	1540	14800	> 3.07	2.69	2.33	2	> 3.07	> 3.07	2000	4.67	42	7160	Tmax [5]: 6 h; inhibition at 1 µM (hERG (KCNH2) [7]): 28%; clearance [8]: 15.1 mL/min/kg; Vd [11]: 3.26 L/kg; AUClast [15]: 2193 ng·h/mL; Cmax [17]: 1030 ng/mL; half-life [20]: 3.94 h; half-life [23]: 3.58 h; AUClast [25]: 3524 ng·h/mL; F [28]: 11%; Cmax [29]: 261 ng/mL
Cn1c(=O)n(C2CCC(=O)NC2=O)c2cccc(C#CCO[C@H]3CC[C@H](CN4CCC5(CC4)Cc4cc(NC(=O)c6cnn7cccnc67)c(N6CCC(O)CC6)cc4O5)CC3)c21 (some centres not stated)	–	87	1.37	3.82	0.6	> 3.07	3490	42100	> 3.07	2.76	1.07	4	> 3.07	> 3.07	2780	2.44	59	14100	Tmax [5]: 8 h; clearance [8]: 21.4 mL/min/kg; Vd [11]: 3.69 L/kg; AUClast [15]: 1436 ng·h/mL; Cmax [17]: 696 ng/mL; half-life [20]: 2.42 h; inhibition at 3 µM (hERG (KCNH2) [30]): 35%; half-life [23]: 3.16 h; AUClast [25]: 3395 ng·h/mL; F [28]: 15%; Cmax [29]: 352 ng/mL
Cn1c(=O)n(C2CCC(=O)NC2=O)c2cccc(CN3CCC4(CC3)CN(CCN3CCC5(CC3)Cc3cc(NC(=O)c6cnn7cccnc67)c(N6CCC(CO)CC6)cc3O5)C4)c21 (configuration not stated)	34	95	1.53	–	–	> 3.07	–	–	0.7	–	1.17	–	0.833	0.65	–	–	–	–	–
Cn1c(=O)n(C2CCC(=O)NC2=O)c2cccc(CN3CC4(CCN(CCN5CCC6(CC5)Cc5cc(NC(=O)c7cnn8cccnc78)c(N7CCC(CO)CC7)cc5O6)CC4)C3)c21 (configuration not stated)	6	95	1.66	–	–	–	–	–	–	–	–	–	–	–	–	–	–	–	–
Cn1c(=O)n(C2CCC(=O)NC2=O)c2cccc(C#CCOCCNCCN3CCC4(CC3)Cc3cc(NC(=O)c5cnn6cccnc56)c(N5CCC(CO)CC5)cc3O4)c21 (configuration not stated)	8	89	1.17	–	–	–	–	–	–	–	–	–	–	–	–	–	–	–	–
Cn1c(=O)n(C2CCC(=O)NC2=O)c2cccc(CN3CCC(CCN4CCC5(CC4)Cc4cc(NC(=O)c6cnn7cccnc67)c(N6CCC(CO)CC6)cc4O5)CC3)c21 (configuration not stated)	28	92	1.09	–	–	1.55	–	–	0.817	–	0.217	–	0.733	1.1	–	–	–	–	–
Cn1c(=O)n(C2CCC(=O)NC2=O)c2cccc(C#CCO[C@H]3CC[C@H](CN4CCC5(CC4)Cc4cc(NC(=O)c6cnn7cc(C#N)cnc67)c(N6CCC(CO)CC6)cc4O5)CC3)c21 (some centres not stated)	–	89	2.81	–	–	> 3.07	–	–	2.45	–	1.07	–	> 3.07	1.98	–	–	–	–	inhibition at 3 µM (hERG (KCNH2) [30]): 29%
C[C@@H]1CCN(C(=O)CC#N)C[C@@H]1N(C)c1ncnc2[nH]ccc12	–	–	–	–	–	–	–	–	–	–	–	–	–	–	–	–	–	–	Activity (Mus musculus): Active
Cn1c(=O)n(C2CCC(=O)NC2=O)c2cccc(C#CCO[C@H]3CC[C@H](CN4CCC5(CC4)Cc4cc(NC(=O)c6cnc7cccnn67)c(N6CCC(CO)CC6)cc4O5)CC3)c21 (some centres not stated)	–	90	4.06	4.4	1.66	> 3.07	1190	7390	–	9.75	–	2	> 3.07	> 3.07	1230	9.75	54	3190	inhibition at 1 µM (hERG (KCNH2) [7]): 15%
Cn1c(=O)n(C2CCC(=O)NC2=O)c2cccc(C#CCO[C@H]3CC[C@H](CN4CCC5(CC4)Cc4cc(NC(=O)c6cnn7cc(F)cnc67)c(N6CCC(CO)CC6)cc4O5)CC3)c21 (some centres not stated)	–	87	2.24	4.27	0.96	> 3.07	2280	27000	–	4.07	–	4	> 3.07	> 3.07	1380	2.83	47	11700	Tmax [5]: 6 h; inhibition at 1 µM (hERG (KCNH2) [7]): 36%; clearance [8]: 12.4 mL/min/kg; Vd [11]: 3.12 L/kg; AUClast [15]: 424 ng·h/mL; Cmax [17]: 243 ng/mL; half-life [20]: 3.14 h; half-life [23]: 2.94 h; AUClast [25]: 8344 ng·h/mL; F [28]: 21%; Cmax [29]: 628 ng/mL
